# Patent publication US11884612B2, “Covalent peptide binders” (The Regents of the University of California, priority 2016, dated 2024)
# “Also recorded” adds a separate entry of the source. Positions of bridges follow the written chain, without caps; N, C: chain ends. Non-standard residues stand in square brackets, D forms with d. Residues, ends and D or L forms follow the SMILES beside them. *: point of attachment. Benzoyl(3-SO2F) = O=C(c1cccc(S(=O)(=O)F)c1)*; R8 = C=CCCCCCC[C@@](C)(N)C(=O)O; S5 = C=CCCC[C@](C)(N)C(=O)O; Dap = NC[C@H](N)C(=O)O
# What was measured:
# [1] = test system: p53 null Saos-2 cells; assay: Cell viability (p53-independent cytotoxicity), CELL TITER-GLO assay; details: 37° C., 8 h, 50, 25, 12.5 uM
# Experimental: Error bars are s.e.m. (n=5) and normalized to the luminescence reading of DMSO treated cells.
# Cell viability was measured on the p53-null Saos-2 cells by CELL TITER-GLO® assay per Promega's instructions. Peptides were incubated with the Saos-2 cells at 37° C. for 8 h.
# [2] = target: T1, Brca1-Bard1 interaction (Homo sapiens, UniProt P38398+Q99728); assay: ReBiL assay of peptide inhibition of Brca1-Bard1 interaction in cell lysates (binding selectivity); assay type: biochemical; details: cell lysates of Saos-2 cells
# T1 construct: expressed in transfected cells; host or cells: Saos-2 ReBiL reporter cells; lysate
# Experimental: To test the binding selectivity of peptides 2, 4 and 5, we then incubated the peptides with cell lysates of Saos-2 cells harboring ReBiL system expressing Brca1-Bard1 instead of p53-Mdm2/Mdmx.
# [3] = target: T2, p53-Mdm4 interaction (Homo sapiens, UniProt O15151); assay: ReBiL assay of peptide inhibition of p53-Mdm4 interaction in cell lysates; assay type: biochemical; details: Saos-2 cell lysates
# T2 construct: expressed in transfected cells; host or cells: Saos-2 (p53-null) ReBiL reporter cells; lysate
# T2 sequence (O15151 1-490): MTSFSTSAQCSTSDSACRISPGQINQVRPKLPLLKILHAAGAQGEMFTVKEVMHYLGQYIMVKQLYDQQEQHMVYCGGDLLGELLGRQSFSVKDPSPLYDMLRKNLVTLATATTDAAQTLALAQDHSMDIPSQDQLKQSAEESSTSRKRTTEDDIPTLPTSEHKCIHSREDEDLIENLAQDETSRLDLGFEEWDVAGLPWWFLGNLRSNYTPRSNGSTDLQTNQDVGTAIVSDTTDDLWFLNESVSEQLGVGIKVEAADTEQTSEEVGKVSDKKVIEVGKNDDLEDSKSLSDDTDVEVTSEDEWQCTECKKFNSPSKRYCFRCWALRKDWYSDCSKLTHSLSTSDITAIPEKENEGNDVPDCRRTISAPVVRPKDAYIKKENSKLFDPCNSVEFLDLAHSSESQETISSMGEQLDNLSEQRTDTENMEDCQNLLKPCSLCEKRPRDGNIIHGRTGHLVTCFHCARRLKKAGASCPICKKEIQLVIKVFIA
# From the text: In ReBiL, luciferase is split and separately fused to Mdm2/Mdm4 and p53, and the expression cassette is integrated into a single chromosomal site in host cells (FIG. 3A). Inhibition of the interaction between p53 and Mdm2/Mdm4 results in a decrease in luciferase activity.
# [4] = test system: His-tagged Mdm4; assay: Covalent binding to purified Mdm4 (anti-His immunoblot band shift, ESI-MS)
# From the text: FIG. 4. […] After separation by SDS-PAGE, an anti-His antibody was used to detect Mdm4.
# T1 sequence (P38398 whole entry): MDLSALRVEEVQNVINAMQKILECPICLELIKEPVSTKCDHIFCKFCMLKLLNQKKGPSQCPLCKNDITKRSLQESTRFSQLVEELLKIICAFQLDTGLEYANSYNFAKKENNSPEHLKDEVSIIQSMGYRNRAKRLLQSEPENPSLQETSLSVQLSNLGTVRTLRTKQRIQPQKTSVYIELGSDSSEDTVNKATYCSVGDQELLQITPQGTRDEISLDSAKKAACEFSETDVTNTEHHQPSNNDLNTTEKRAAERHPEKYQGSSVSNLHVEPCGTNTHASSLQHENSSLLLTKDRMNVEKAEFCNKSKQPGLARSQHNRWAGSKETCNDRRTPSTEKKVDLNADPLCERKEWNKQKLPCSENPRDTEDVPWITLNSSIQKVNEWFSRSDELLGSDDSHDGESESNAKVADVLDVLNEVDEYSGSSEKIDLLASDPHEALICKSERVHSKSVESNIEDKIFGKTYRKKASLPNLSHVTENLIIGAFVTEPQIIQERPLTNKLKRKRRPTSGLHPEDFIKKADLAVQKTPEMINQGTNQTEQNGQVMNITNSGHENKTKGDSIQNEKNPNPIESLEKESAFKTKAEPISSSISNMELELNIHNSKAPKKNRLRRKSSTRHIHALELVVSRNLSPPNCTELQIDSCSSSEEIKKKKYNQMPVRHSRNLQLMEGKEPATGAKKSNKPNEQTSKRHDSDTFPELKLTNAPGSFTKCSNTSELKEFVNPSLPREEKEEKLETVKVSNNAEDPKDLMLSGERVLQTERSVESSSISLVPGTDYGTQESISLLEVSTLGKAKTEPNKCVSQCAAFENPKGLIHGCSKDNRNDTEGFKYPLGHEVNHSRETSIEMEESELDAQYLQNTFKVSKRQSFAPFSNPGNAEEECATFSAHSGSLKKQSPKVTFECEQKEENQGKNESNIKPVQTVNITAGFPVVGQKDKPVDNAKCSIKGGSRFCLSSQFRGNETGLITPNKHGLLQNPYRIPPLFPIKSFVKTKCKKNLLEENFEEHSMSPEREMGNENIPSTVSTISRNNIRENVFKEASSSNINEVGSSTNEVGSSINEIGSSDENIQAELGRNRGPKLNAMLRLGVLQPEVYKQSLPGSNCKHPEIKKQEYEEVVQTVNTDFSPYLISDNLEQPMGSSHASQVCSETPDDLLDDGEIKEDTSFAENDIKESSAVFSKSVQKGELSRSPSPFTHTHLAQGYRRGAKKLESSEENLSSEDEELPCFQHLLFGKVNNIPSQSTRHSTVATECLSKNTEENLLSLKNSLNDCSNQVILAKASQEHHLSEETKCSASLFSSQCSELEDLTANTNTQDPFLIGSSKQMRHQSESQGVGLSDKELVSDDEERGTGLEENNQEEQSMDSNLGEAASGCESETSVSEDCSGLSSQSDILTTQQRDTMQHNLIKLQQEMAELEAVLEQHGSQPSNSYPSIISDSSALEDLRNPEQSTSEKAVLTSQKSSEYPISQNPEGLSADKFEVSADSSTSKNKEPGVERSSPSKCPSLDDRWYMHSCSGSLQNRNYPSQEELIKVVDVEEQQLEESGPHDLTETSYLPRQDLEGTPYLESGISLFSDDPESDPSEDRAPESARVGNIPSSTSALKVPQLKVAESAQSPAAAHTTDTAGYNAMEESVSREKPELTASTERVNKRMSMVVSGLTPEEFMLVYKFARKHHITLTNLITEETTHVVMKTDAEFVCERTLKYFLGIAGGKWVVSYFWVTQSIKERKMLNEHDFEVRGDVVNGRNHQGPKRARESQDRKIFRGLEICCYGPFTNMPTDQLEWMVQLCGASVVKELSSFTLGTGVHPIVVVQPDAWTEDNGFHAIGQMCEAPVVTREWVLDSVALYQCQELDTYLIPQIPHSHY
# T1 sequence (Q99728 whole entry): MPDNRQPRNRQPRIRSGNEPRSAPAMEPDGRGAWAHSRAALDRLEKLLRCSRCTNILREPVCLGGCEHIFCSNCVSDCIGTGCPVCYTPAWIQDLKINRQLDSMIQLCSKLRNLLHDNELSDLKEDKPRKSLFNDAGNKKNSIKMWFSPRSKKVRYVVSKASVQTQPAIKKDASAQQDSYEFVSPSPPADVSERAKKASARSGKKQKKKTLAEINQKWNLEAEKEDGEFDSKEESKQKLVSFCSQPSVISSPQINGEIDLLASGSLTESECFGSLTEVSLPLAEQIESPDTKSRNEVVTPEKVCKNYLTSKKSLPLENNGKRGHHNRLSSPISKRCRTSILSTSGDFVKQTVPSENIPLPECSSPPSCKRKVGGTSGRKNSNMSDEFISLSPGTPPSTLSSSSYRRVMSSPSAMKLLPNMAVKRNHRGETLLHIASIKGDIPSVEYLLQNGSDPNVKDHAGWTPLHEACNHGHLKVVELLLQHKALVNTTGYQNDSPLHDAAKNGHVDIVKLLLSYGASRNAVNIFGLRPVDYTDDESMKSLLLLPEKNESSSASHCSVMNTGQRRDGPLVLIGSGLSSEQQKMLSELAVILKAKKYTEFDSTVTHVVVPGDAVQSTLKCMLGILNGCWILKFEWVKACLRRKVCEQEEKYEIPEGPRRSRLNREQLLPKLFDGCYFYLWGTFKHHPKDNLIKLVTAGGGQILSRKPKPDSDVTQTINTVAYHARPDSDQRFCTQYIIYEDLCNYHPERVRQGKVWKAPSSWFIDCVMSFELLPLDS
compound,measurement,setting,value
CC(=O)N[C@@H](CCC(N)=O)C(=O)N[C@@H](CO)C(=O)N[C@@H](CCC(N)=O)C(=O)N[C@@H](CCC(N)=O)C(=O)N[C@H](C(=O)N[C@@H](Cc1ccccc1)C(=O)N[C@]1(C)CCCCCCC=CCCC[C@@](C)(C(=O)N[C@@H](CCC(N)=O)C(=O)N[C@@H](CC(N)=O)C(N)=O)NC(=O)[C@H](CC(C)C)NC(=O)[C@H](CC(C)C)NC(=O)[C@H](CCCNC(=N)N)NC(=O)[C@H](Cc2c[nH]c3ccccc23)NC(=O)[C@H](CNC(=O)c2cccc(S(=O)(=O)F)c2)NC(=O)[C@H](CC(N)=O)NC1=O)[C@@H](C)O [Peptide 4] (Ac-QSQQTF[R8]N[Dap](Benzoyl(3-SO2F))WRLL[S5]QN-NH2; staple 7-14 (inferred)),cell viability / cytotoxicity,[1],no significant cytotoxicity; also recorded: nontoxic
same,inhibition of Brca1-Bard1 interaction,[2],did not inhibit
same,activity to Mdm4 relative to Mdm2,[3],ten-fold higher
same,"time until crosslinking (""sulfate click reaction"") with Mdm4 was complete","[4]; 37° C., PBS buffer pH 7.5",≤ 10 min
same,"shift of Mdm4 band to higher molecular weight (covalent binding), immunoblot","[4]; Mdm4 1.5 μM, peptide 3 μM, PBS buffer pH 7.5, 37° C., 10, 20 and 60 min",shifted the Mdm4 band to a higher molecular weight; also recorded: shift of the band to a higher molecular weight
same,covalent complex formation with Mdm4 by ESI-MS,[4]; incubated 60 min,confirmed the covalent complex formation
